From article PMC3553074 (PLoS ONE, 2013)

Biological target: Ft-MglA/Ft-SspA complex (Francisella tularensis, UniProt Q5NFG1+Q5NHJ6)
Sequence (Q5NFG1 1-205): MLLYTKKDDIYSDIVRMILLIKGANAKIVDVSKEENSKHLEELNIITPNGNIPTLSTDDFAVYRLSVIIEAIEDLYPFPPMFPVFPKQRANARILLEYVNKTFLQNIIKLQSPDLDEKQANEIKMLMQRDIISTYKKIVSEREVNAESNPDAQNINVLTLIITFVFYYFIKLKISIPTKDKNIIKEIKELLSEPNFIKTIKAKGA
Sequence (Q5NHJ6 1-210): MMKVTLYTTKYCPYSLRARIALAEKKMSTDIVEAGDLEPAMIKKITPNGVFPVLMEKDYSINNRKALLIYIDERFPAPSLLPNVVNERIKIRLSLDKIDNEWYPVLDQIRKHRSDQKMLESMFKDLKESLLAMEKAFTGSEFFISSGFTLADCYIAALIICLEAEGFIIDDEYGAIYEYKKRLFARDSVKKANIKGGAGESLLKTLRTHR

CCN(CC)CCCC(C)Nc1c2ccc(Cl)cc2nc2ccc(OC)cc12 (stereo not shown) [quinacrine]
ΔTm (Tm1): 24.0 °C
